Test results reported in US11166924B2, “N-methyl-d-aspartate receptor allosteric modulators and methods for their use” (Qingdao Primedicine Pharmaceutical Company, Ltd., priority 2016, dated 2021).

Tests used:
Assay type in all cases: cell-based
[1] = molecular target: T1, GluN1/GluN2A-containing NMDARs (Rattus norvegicus, UniProt P35439+Q00959); assay: Ca2+ influx assay (Fluo-4) in primary cultured rat neurons
T1 construct: endogenous in cells; host or cells: primary rat cortical neurons, 12-14 days in culture
Experimental: Rat neurons isolated from the entire cortex were plated onto poly-d-lysine-coated 96-well plates. After 12-14 days in culture, the level of intracellular calcium was assayed using the Fluo-4 No Wash calcium assay kit according to the manufacturer's protocol (Thermo Fisher Scientific). In brief, the neuronal culture medium was removed and replaced with a calcium assay buffer (CAB) containing […], 20 mM HEPES, 2.5 mM probenacid, and Fluo4-NW dye mix (pH 7.4; Thermo Fisher Scientific). The cells were then incubated for 45 minutes at 37° C. for dye loading and then 15 minutes at 25° C. To isolate calcium signals mediated by NMDARs, NMDA was used as an agonist (10 μM), and 2 μM glycine were added. The antagonist […] was used to block the GluN1/GluN2A NMDARs. The calcium fluorescence measurement was performed at 25° C. after 60 seconds of recording with a FLEXStation II benchtop scanning fluorometer (Molecular Devices); then, the NMDAR agonist NMDA (10 μM)/glycine (2 μM) was added at 180 seconds. Fluorescence plate reading continued for a total of 30 mins with use of an excitation of 485 nm, an emission of 538 nm, and a cutoff of […]. The data were recorded using SoftMax Pro software (Molecular Devices). […]

GluN1^L135Q/GluN2A^F115S = molecular target: T2, GluN1^L135Q/GluN2A^F115S (Rattus norvegicus, UniProt P35439+Q00959, F115S/L135Q); assay: Patch clamp in HEK293 cells expressing double mutant GluN1 L135Q/GluN2A F115S
T2 construct: expressed in transfected cells; host or cells: HEK293
T2 sequence (Q00959 23-1464 F115S, other chains not shown): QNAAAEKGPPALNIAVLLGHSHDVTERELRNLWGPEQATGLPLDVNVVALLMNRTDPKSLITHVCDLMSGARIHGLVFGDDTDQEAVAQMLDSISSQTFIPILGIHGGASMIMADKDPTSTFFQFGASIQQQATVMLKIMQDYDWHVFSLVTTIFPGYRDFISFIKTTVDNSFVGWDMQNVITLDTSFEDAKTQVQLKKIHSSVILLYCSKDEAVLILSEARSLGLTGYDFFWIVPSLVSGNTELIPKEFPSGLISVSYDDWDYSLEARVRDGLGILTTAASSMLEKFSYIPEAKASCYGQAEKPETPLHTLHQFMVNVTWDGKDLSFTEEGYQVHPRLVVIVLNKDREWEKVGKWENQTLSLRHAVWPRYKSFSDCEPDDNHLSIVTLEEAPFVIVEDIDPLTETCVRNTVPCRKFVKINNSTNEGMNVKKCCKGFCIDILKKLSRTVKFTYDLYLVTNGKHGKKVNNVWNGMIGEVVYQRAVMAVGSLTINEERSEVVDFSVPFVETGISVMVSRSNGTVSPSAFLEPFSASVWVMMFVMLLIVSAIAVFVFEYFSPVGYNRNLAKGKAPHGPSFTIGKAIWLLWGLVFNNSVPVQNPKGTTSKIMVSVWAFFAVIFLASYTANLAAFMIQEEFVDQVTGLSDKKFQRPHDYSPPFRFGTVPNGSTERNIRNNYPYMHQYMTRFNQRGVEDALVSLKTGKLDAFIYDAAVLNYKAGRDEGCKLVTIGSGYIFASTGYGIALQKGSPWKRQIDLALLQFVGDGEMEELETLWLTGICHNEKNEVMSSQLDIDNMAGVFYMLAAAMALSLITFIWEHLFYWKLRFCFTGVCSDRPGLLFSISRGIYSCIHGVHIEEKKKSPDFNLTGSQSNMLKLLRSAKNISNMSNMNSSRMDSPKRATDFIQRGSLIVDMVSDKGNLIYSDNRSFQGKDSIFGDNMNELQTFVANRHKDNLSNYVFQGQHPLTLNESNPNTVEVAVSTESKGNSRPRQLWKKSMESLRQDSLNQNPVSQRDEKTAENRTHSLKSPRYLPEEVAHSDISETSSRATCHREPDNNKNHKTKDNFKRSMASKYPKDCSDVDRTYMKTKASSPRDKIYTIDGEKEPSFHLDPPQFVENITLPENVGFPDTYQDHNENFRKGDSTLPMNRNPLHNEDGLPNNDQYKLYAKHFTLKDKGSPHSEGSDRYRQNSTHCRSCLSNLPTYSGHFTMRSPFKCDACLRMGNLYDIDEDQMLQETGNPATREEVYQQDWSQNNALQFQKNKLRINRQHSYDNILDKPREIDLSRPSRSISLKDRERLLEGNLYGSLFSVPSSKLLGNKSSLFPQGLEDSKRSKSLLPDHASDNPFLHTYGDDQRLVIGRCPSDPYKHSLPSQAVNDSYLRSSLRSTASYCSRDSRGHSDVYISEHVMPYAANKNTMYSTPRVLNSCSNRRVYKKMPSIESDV
Experimental: (§1) Whole cell patch-clamp recordings were performed under voltage-clamp mode using an Axopatch 200B or 1D patch-clamp amplifier (Molecular Devices). Whole-cell currents were recorded at a holding potential of −60 mV unless indicated elsewhere, and signals were filtered at 2 kHz, digitized at 10 kHz (Digidata 1322A). Recording pipettes (3-5 MΩ) were filled with intracellular solution containing (mM): CsCl 140, HEPES 10, Mg-ATP 4, QX-314 5, pH 7.20; osmolarity, 290-295 mOsm. BAPTA (10 mM) was added in the intracellular solution (unless otherwise specified). The coverslips were continuously superfused with extracellular solution containing (mM): NaCl 140, KCl 5.4, HEPES 10, CaCl2 1.3, glucose 20, pH 7.4; osmolarity, 305-315 mOsm. NMDA-induced currents were applied by NMDA through perfusion fast-step (Warner Instruments). With perfusion fast-step system, NMDA application was achieved by using a two-square barrel glass tubing and depending on the age of the cultured neurons, CNQX (10 μM), TTX (0.5 μM) or BIC (10 μM) were added in the extracellular solution to minimize the activation of ionotropic glutamate receptors and voltage-gated sodium channels, respectively. All experiments were performed at room temperature. Recordings from at least six HEK293 cells/neurons were performed for all active compounds. […]

GluN1^L135Q/GluN2A = molecular target: T3, GluN1^L135Q/GluN2A (Rattus norvegicus, UniProt P35439+Q00959, L135Q); assay: Patch clamp in HEK293 cells expressing mutant GluN1 L135Q/GluN2A
T3 construct: expressed in transfected cells; host or cells: HEK293
T3 sequence (Q00959 23-1464, other chains not shown): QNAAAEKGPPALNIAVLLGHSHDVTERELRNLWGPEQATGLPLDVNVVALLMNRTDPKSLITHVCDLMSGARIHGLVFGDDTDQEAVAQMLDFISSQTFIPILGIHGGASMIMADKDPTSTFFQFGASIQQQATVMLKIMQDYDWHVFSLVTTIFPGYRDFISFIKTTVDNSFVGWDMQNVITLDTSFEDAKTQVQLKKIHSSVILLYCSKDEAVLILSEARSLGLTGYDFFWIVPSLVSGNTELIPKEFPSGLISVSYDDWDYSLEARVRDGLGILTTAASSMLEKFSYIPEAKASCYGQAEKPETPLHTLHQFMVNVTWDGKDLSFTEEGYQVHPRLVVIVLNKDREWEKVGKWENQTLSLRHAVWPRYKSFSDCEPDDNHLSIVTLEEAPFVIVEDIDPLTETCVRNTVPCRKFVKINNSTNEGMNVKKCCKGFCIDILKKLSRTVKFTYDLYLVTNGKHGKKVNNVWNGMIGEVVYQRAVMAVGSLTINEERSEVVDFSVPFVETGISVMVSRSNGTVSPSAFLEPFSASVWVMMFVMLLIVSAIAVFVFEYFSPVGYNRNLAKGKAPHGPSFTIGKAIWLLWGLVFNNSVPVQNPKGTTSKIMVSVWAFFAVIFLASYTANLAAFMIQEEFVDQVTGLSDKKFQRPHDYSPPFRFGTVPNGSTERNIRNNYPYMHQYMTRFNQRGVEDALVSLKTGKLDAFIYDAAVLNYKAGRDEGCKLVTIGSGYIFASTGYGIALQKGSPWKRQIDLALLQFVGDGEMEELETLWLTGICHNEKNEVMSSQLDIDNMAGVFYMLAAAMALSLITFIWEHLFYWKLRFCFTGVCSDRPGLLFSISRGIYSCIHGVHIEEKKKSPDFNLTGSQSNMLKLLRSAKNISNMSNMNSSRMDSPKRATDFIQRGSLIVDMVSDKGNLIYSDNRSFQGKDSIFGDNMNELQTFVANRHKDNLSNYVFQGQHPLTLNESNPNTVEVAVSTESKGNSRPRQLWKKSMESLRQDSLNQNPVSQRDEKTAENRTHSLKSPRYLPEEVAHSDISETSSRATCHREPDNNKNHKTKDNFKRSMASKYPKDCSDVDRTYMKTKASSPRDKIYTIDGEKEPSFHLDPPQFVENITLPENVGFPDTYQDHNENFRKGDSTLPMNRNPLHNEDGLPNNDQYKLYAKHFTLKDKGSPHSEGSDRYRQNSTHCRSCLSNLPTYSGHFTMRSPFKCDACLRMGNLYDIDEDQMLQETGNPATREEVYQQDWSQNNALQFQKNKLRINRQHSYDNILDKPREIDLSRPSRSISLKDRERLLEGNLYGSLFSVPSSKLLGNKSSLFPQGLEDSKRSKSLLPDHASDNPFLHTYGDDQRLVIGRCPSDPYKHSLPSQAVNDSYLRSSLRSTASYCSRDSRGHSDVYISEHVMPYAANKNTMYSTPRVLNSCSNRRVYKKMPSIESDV
Experimental: as §1

[2] = molecular target: T4, GluN2A NMDARs in GluN2B-lacking neurons (Mus musculus, UniProt P35436+P35438); assay: Whole-cell recordings in GluN2B-knockout cortical neurons; conditions: compared to NMDA control
T4 construct: endogenous in cells; host or cells: primary cortical neurons from GluN2B-knockout mouse embryos
T4 sequence (P35436 23-1464, other chains not shown): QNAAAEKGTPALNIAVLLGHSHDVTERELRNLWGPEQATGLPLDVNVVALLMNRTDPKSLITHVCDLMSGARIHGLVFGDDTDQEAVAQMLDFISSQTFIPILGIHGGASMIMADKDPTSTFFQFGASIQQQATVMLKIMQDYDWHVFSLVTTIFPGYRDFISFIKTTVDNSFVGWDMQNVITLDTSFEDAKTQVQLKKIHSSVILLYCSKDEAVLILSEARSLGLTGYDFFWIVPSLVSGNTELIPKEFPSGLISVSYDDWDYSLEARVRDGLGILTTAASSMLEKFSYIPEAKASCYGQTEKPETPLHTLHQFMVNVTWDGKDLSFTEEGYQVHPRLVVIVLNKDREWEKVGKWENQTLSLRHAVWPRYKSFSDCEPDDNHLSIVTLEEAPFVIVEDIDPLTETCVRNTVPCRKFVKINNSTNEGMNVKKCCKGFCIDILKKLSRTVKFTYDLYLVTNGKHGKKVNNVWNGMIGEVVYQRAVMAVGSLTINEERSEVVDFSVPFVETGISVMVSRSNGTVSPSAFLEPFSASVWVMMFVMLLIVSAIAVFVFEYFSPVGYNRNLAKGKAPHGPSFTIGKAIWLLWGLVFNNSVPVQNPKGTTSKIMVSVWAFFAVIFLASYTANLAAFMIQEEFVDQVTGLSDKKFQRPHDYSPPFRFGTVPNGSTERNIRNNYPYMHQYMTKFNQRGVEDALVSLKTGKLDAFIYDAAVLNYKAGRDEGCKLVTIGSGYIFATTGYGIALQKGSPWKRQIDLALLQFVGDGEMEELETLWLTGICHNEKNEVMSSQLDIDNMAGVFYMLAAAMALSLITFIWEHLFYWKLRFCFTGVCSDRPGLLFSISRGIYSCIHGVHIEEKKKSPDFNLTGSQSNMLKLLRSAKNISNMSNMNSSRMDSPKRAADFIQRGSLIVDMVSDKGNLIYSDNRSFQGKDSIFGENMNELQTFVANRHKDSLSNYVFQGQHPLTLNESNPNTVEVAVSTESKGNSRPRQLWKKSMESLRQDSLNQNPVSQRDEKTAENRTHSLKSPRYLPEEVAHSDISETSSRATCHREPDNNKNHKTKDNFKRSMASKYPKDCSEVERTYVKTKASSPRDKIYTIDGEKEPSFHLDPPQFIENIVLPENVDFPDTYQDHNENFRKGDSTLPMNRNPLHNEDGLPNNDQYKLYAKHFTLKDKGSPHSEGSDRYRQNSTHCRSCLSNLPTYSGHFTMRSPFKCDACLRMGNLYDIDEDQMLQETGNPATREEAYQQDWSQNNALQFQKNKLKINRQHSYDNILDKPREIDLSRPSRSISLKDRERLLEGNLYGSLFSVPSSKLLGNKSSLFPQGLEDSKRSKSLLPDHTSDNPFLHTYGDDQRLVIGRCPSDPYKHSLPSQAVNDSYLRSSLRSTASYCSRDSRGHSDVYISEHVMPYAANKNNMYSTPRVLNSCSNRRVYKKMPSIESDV

Positive modulation of NMDAR currents ([2]; 100 μM bath, NMDA 20 μM, glycine 2 μM)	Potentiation effect with co-applied ifenprodril (IF) ([2]; GluN2B-knockout neurons)	NMDAR current change with NVP-AAM007 (0.2 μM) and Npam02 ([2]; Npam02 100 μM)	SMILES	Ca2+ influx in response to Npam43 with co-applied NVP-AAM0077 ([1]; GluN2A antagonist co-applied)	Ca2+ influx fluorescence signal ([1]; NMDA 10 μM, glycine 2 μM)	Net Difference potentiation (GluN1^L135Q/GluN2A^F115S; GluN1 L135Q/GluN2A F115S double mutation, normalized to wild-type)	Relative potentiation (GluN1^L135Q/GluN2A^F115S; Table 3, GluN1 L135Q/GluN2A F115S)	Relative potentiation (GluN1^L135Q/GluN2A; Table 3)	Net Difference potentiation (GluN1^L135Q/GluN2A; normalized to wild-type)
–	–	–	CCOc1cc(Cl)c(Cl)c(/C=N/NC(=O)c2ccccc2Br)c1O [Npam43, (E)-2-bromo-N′-(2,3-dichloro-5-ethoxy-6-hydroxybenzylidene)benzohydrazide]	marked reduction of Ca^2+ influx	increased the Ca^2+ influx fluorescence signal	−93.9±10.3%	12.7 ± 1.8%	47.1 ± 2.8%	−77.5±2.12%
44.72±4.29%	42.22±4.03%	88.87±3.45%	COc1cccc(/C=N/NC(=O)c2ccccc2C)c1O [Npam02, (E)-N′-(2-hydroxy-3-methoxybenzylidene)-2-methylbenzohydrazide]	–	–	–	–	–	–
